Active and inactive are the calls of the source. No cut-off for these calls is given here.
Experiments:
[1] = target: T1, Acetylcholinesterase (Mus musculus) (UniProt P21836); experiment: Potentiation of inhibition of AChE by TEPP in mouse brain at 300 uM; type: functional, tissue-based
T1 sequence (whole entry): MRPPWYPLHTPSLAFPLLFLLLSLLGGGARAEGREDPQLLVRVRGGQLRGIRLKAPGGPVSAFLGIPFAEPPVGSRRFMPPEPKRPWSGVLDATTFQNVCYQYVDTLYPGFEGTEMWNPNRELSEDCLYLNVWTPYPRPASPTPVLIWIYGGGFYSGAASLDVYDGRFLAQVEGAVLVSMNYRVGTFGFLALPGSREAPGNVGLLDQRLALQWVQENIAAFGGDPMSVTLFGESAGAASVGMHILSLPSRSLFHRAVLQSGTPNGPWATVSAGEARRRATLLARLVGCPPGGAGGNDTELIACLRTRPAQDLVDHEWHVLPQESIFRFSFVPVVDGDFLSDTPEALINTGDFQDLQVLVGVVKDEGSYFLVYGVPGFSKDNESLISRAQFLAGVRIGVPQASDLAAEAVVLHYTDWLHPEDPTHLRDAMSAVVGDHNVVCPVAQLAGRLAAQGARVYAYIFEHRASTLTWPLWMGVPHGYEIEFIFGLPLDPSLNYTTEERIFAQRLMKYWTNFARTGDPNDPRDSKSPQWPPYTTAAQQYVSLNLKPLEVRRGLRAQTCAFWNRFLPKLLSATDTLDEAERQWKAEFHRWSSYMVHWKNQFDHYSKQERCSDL

[2] = target: T1, Acetylcholinesterase (Mus musculus); experiment: Reactivation of TEPP inhibited mouse brain AChE at 30 uM; type: functional; design: scale not given: the % may be the effect or the level left
[3] = target: T1, Acetylcholinesterase (Mus musculus); experiment: Reactivation of TEPP inhibited AChE in mouse brain at 100 uM; type: functional, tissue-based; design: scale not given: the % may be the effect or the level left
[4] = target: T1, Acetylcholinesterase (Mus musculus); experiment: Reactivation of TEPP inhibited AChE in mouse brain at 50 uM; type: functional, tissue-based
[5] = target: T1, Acetylcholinesterase (Mus musculus); experiment: Reactivation of TEPP inhibited AChE in mouse brain at 300 uM; type: functional, tissue-based
[6] = target: T1, Acetylcholinesterase (Mus musculus); experiment: Reactivation of TEPP inhibited AChE in mouse brain at 200 uM; type: functional, tissue-based
[7] = target: T1, Acetylcholinesterase (Mus musculus); experiment: Reactivation of TEPP inhibited AChE in mouse brain at 150 uM; type: functional, tissue-based
[8] = target: T1, Acetylcholinesterase (Mus musculus); experiment: Reactivation of TEPP inhibited AChE in mouse brain at 250 uM; type: functional, tissue-based
[9] = target: T1, Acetylcholinesterase (Mus musculus); experiment: Potentiation of inhibition of AChE by TEPP in mouse brain at 100 uM; type: functional, tissue-based

SMILES	Activity [1]	Activity [2] [%]	Activity [3]	Activity [4]	Activity [5]	Activity [6]	Activity [7]	Activity [8]	Activity [9]
O/N=C/c1cc[n+](CCCCCCC[n+]2ccc(/C=N/O)cc2)cc1	Active	39	14%						
NC(=O)c1cc[n+](CCCCCCCC[n+]2ccc(/C=N/O)cc2)cc1			inactive	inactive	inactive	inactive	inactive	inactive	
O/N=C/c1cc[n+](CCCCCCCC[n+]2ccc(/C=N/O)cc2)cc1			inactive	inactive	inactive	inactive	inactive	inactive	
NC(=O)c1cc[n+](CCCCCCC[n+]2ccc(/C=N/O)cc2)cc1	Active	15							Active
NC(=O)c1ccc[n+](CCCCCCCC[n+]2ccc(/C=N/O)cc2)c1			inactive	inactive	inactive	inactive	inactive	inactive	
NC(=O)c1ccc[n+](CCCCCCCCC[n+]2ccc(/C=N/O)cc2)c1			inactive	inactive	inactive	inactive	inactive	inactive	
NC(=O)c1ccc[n+](CCCCCCC[n+]2ccc(/C=N/O)cc2)c1	Active	23							Active
O/N=C/c1cc[n+](CCCCCCCCC[n+]2ccc(/C=N/O)cc2)cc1			inactive	inactive	inactive	inactive	inactive	inactive	
NC(=O)c1cc[n+](CCCCCCCCC[n+]2ccc(/C=N/O)cc2)cc1			inactive	inactive	inactive	inactive	inactive	inactive	

From ChEMBL document CHEMBL1146945, “Quaternary salts of 4,3' and 4,4' bis-pyridinium monooximes. Part 2: synthesis and biological activity” (Bioorg Med Chem Lett, 2006)
